{
  "source": "patent US7238469B2",
  "about": "“Carbon monoxide improves outcomes in tissue and organ transplants and suppresses apoptosis” (priority 2001, dated 2007)",
  "tested_on": "βTC3 cells",
  "assay": "TNF-α mediated apoptosis of β-gal transfected βTC3 cells (percentage of viable cells)",
  "type": "cell-based, murine",
  "procedure": "The murine insulinoma cell line βTC3 (DSMZ, Braunschweig, Germany) was cultured in Dulbecco's Modified Eagle's Medium (DMEM) (Life Technologies, Grand Island, N.Y., USA) supplemented with 2 mM L-glutamine, 100 U/ml penicillin G, 100 U/ml streptomycin and 10% Fetal Calf Serum (FCS) (Life Technologies) and incubated in humidified 5% CO2/95% air at 37° C. This murine β-cell line, derived from transgenic mice carrying a hybrid insulin-promoter simian virus 40 tumor antigen, is known to maintain the features of differentiated β-cells for about 50 passages in culture. […] Compared to other frequently used transformed β-cell lines such as RIN-m5F and HIT, levels of secreted insulin are closer to normal β-cells in the βTC3 cell line. Thus, these cells are useful for studying β-cell regulation and gene expression (D'Ambra et al., Endocrinology 726:2815–22, 1990).\nβTC3 were seeded at 3×10^5 cells in 16 mm wells and transfected 15 to 20 hours later using Lipofectamine plus™ reagents (Life Technologies) according to the manufacturer's instructions. Total DNA was maintained constant using empty pcDNA3 vector. The percentage of viable cells was assessed by normalizing the percentage of viable cells of each DNA preparation to the number of control-transfected cells without the apoptotic stimulus (100% viability) (Soares et al., Nature Med. 4:1073–1077, 1998; Sato et al., J. Immunol. 166:4185–4194, 2001).\nMurine recombinant TNF-α (R&D Systems) was dissolved in PBS with 1% bovine serum albumin and added to the culture medium (17.5 ng/ml=500 U) 24 hours after transfection. The caspase-3 inhibitor Z-DEVD-FMK and the caspase-8 inhibitor IETD-CHO (Calbiochem, San Diego, Calif.) were dissolved in dimethyl sulphoxide (DMSO, Sigma) and added to the culture medium (10 μM and 1 μM respectively) two hours before treatment with TNF-α. Tin protoporphyrin (SnPPIX) (Porphyrin Products, Logan, Utah) was dissolved (10 mM) in 100 mM NaOH and added 6 hours after transfection to the culture medium (50 μM). The guanylyl cyclase inhibitor 1H[1,2,4]oxadiazolo[4,3-α]quinoxalin-1 (ODQ; Calbiochem) was dissolved in DMSO and added to the culture medium (100 μM) 6 hours after transfection. The cGMP analogue 8-bromoguanosine-3′-5′-cyclic-monophosphate (8-Br-cGMP) (Sigma) was dissolved in water and added to the culture medium (10 μM) 30 minutes before induction of apoptosis. The protein kinase G inhibitor KT5823 (Calbiochem) was dissolved in DMSO and added to the culture medium (1.6 μM) 6 hours after transfection.\nCells and islets were exposed to 1% carbon monoxide in compressed air balanced with 5% CO2, as described elsewhere (see, e.g., Otterbein et al., Nature Med. 6:422–428, 2000). Islets were incubated in RPMI medium pre-saturated with carbon monoxide (4° C. overnight, 1% CO, 5% CO2) for two hours at 37° C. while treatment with 1% CO, 5% CO2 was continued.",
  "data": [
    {"smiles": "Nc1nc2c(nc(Br)n2[C@@H]2O[C@@H]3COP(=O)(O)O[C@H]3[C@H]2O)c(=O)[nH]1", "note": "[8-Br-cGMP, 8-bromoguanosine-3′-5′-cyclic-monophosphate]", "values": [
      {"measurement": "effect on βTC3 apoptosis", "setting": "TNF-α, 8-Br-cGMP 10 μM, no CO", "value": "suppressed βTC3 apoptosis to an extent similar to that seen with carbon monoxide"}
    ]},
    {"smiles": "O=c1onc2cnc3ccccc3n12", "note": "[ODQ, 1H[1,2,4]oxadiazolo[4,3-α]quinoxalin-1]", "values": [
      {"measurement": "effect on the anti-apoptotic effect of exogenous CO", "setting": "TNF-α, 1% CO, ODQ 100 μM, KT5823 1.6 μM", "value": "suppressed the anti-apoptotic effect of CO"}
    ]},
    {"smiles": "[C-]#[O+]", "note": "[CO, carbon monoxide]", "values": [
      {"measurement": "effect on β-cell apoptosis induced by etoposide or serum starvation", "setting": "1% CO", "value": "suppressed"},
      {"measurement": "effect on β-cell apoptosis, CO exposure immediately after TNF-α", "setting": "1% CO for one hour, tested 24 hours later", "value": "sufficient to prevent β-cell apoptosis"},
      {"measurement": "effect on β-cell apoptosis, CO exposure after induction of apoptosis", "setting": "1% CO for one hour, two hours after TNF-α stimulation", "value": "still able to suppress β-cell apoptosis"},
      {"measurement": "effect on TNF-α mediated apoptosis", "setting": "1% CO, action of HO-1 suppressed by SnPPIX", "value": "suppressed TNF-α mediated apoptosis to a similar extent as HO-1"},
      {"measurement": "effect on β-cell apoptosis, pre-incubation with CO", "setting": "one hour pre-incubation, TNF-α two to three hours after end of CO treatment", "value": "prevented β-cell apoptosis"}
    ]},
    {"smiles": "C=Cc1c2[n-]c(c1C)/C=c1\\[n-]/c(c(C)c1C=C)=C\\c1[n-]c(c(CCC(=O)O)c1C)C=c1[n-]/c(c(C)c1CCC(=O)O)=C\\2.[Sn+4]", "note": "[SnPPIX, tin protoporphyrin IX]", "values": [
      {"measurement": "anti-apoptotic effect of HO-1 over-expression when HO-1 activity was blocked", "setting": "TNF-α, SnPPIX 50 μM", "value": "the anti-apoptotic effect was suppressed"}
    ]}
  ]
}
